Where two headings read alike, the source gives them in different places.
Assays:
CB1 receptor [1] = target: T1, CB1 receptor (Homo sapiens, UniProt P21554); test: Binding assay for CB1 agonists or inverse agonists (SK-N-MC membranes, [3H]-CP-55,940); conditions: for inhibition at 0.2 µM: read-out: CB1 receptor binding percent inhibition, test concentration 0.2 μM (footnote 2)
T1 construct: expressed in transfected cells
Procedure, shortened: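 Membranes from SK-N-MC cells stably expressing human CB1 incubated with compound and [3H]-CP-55,940 ([…]) for 90 min at 30° C in Tris-HCl pH 7.5, MgCl2, EDTA, fatty-acid-free BSA. Non-specific binding defined with 10 uM WIN 55,212; filtration, scintillation count; IC50 by linear regression.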

CB2 receptor = target: T2, CB2 receptor (Homo sapiens, UniProt P34972); test: Modified binding assay, CB2 receptor in CHO cells, [3H]WIN 55212; conditions: [3H]WIN 55212 0.8 nM, 120 minutes at 37° C.
T2 construct: expressed in transfected cells
T2 sequence (P34972 whole entry): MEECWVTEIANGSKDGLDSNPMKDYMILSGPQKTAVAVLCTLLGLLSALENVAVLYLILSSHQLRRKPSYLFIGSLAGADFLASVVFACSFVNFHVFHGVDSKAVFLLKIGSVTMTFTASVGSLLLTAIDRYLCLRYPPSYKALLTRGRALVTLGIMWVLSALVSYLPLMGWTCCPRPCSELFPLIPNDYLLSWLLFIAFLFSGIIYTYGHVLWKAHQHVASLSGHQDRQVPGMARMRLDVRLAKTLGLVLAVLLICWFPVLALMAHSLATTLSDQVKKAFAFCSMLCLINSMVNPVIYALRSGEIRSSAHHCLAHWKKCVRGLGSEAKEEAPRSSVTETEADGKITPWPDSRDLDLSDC
Protocol: Additional receptor binding studies were performed with minor modifications as detailed below.
The human CB1 and CB2 receptors were stably expressed in CHO cells as described in Rinaldi-Carmona, M., Calandra, B., Shire, D., Bouaboula, M., Oustric, D., Barth, F., Casellas, P., Ferrara, P. and Le Fur, G. (1996) J. PharmacoL Exp. Ther., 278: 871-878 and Munro, S., Thomas, K. L. and Abu-Shaar, M. (1993) Nature, 365: 61-65, respectively. [^3H]CP 55940 (0.5 nM) was used as the radioligand for the CB1 receptor binding assay. [^3H]WIN 55212 (0.8 nM) was used as the radioligand for the CB2 receptor binding assay. Incubation was carried out for 120 minutes at 37° C.
The specific ligand binding to the receptors is defined as the difference between the total binding and the nonspecific binding determined in the presence of an excess of unlabelled ligand. The results are expressed as a percent of control specific binding ((measured specific binding/control specific binding)×100) obtained in the presence of the test compounds.
The IC50 values (concentration causing a half-maximal inhibition of control specific binding) were determined by non-linear regression analysis of the competition curves generated with mean replicate values using Hill equation curve fitting (where Y=specific binding, D=minimum specific binding, A=maximum specific binding, C=compound concentration, C50=IC50 and nH=slope factor): (Y=D+[(A−D)/(1+(C/C50)^nH)] CB1 and CB2 Receptor Binding Results
For compounds tested, an IC50 binding value was obtained from percent inhibition studies in which various test concentrations were used.

CB1 receptor [2] = target: T1, CB1 receptor; test: cell-based; conditions: CB1 Receptor Functional Agonist EC50, SK-N-MC cells, forskolin induced β-galactosidase activity
Procedure, shortened: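 SK-N-MC cells stably co-expressing human CB1 and a CRE-β-galactosidase reporter; forskolin-induced β-gal activity measured after compound treatment, as % of vehicle-treated cells (100%). EC50 by linear regression from concentration series; otherwise % change at a single concentration.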

[3] = Cannabinoid CB1 Receptor Binding IC50, calculated by linear regression from percent inhibition at various test concentrations

T1 sequence (P21554 whole entry): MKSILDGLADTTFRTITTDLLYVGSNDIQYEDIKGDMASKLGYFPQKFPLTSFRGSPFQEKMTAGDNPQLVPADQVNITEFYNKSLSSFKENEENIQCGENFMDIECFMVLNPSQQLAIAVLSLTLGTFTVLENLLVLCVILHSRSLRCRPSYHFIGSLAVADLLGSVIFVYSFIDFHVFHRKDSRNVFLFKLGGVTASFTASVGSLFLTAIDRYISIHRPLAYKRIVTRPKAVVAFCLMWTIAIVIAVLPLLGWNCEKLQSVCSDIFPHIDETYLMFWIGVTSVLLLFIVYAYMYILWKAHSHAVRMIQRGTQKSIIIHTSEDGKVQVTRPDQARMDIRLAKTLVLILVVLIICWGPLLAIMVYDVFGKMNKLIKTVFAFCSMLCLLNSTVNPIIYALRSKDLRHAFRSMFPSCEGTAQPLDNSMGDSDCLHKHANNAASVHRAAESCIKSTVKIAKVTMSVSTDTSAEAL

Row | Structure (SMILES) | IC50 (CB1 receptor [1]; [3]) [nM] | inhibition at 0.2 µM (CB1 receptor [1]) [%] | IC50 (CB2 receptor) [nM] | EC50 (CB1 receptor [2]) [nM] | IC50 (CB1 receptor [1]; read-out: Cannabinoid CB1 Receptor Binding IC50, calculated by linear regression from percent inhibition at various test concentrations) [nM]
1 | C[C@H](NS(=O)(=O)/C=C/c1n[nH]c2c1CCCC/C2=C\c1ccc(Cl)cc1)c1ccccc1 [Cpd 237, (2E,8E)-2-[8-(4-chloro-benzylidene)-1,4,5,6,7,8-hexahydro-cycloheptapyrazol-3-yl]-ethenesulfonic acid [(1S)-1-phenyl-ethyl]-amide] | 300 | 0 | 690 | 1700 | 
2 | O=C(N[C@H](CO)c1ccccc1)c1n[nH]c2c1CCCCC2Cc1cccc(Cl)c1 (single isomer, unassigned) [Cpd 230, (8R*)-8-(3-chloro-benzyl)-1,4,5,6,7,8-hexahydro-cycloheptapyrazole-3-carboxylic acid [(1S)-2-hydroxy-1-phenyl-ethyl]-amide] | 300 |  | 92 | 1000 | 
3 | C[C@H](NS(=O)(=O)/C=C/c1n[nH]c2c1CCCCC2Cc1cccc(F)c1)c1ccccc1 (single isomer, unassigned) [Cpd 232, (2E)-2-[(8R*)-8-(3-fluoro-benzyl)-1,4,5,6,7,8-hexahydro-cycloheptapyrazol-3-yl]-ethenesulfonic acid [(1S)-1-phenyl-ethyl]-amide] | 300 | 0 |  | > 5000 | 
4 | O=C(N[C@H](CO)c1ccccc1)c1n[nH]c2c1CCCCC2Cc1cccc(Cl)c1 (single isomer, unassigned) [Cpd 231, (8S*)-8-(3-chloro-benzyl)-1,4,5,6,7,8-hexahydro-cycloheptapyrazole-3-carboxylic acid [(1S)-2-hydroxy-1-phenyl-ethyl]-amide] |  |  | 1800 | > 5000 | 300

From US8378117B2 (priority 2005, dated 2013)
